Patent US20250195521A1 (Revolution Medicines, Inc., priority 2020, published 2025)
Like-named read-outs stand apart in the source and are kept apart here.

Legend:
[1] = system: NCI-H358 cells (K-Ras G12C); experiment: CellTiter-Glo cell viability, NCI-H358; type: cell-based, human; details: Homo sapiens, NCI-H358, 120 h, read-out: H358 Cell Viability IC50
How it was run: (§1)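 Viability is read as luminescence after five days of compound exposure, with plates first equilibrated to room temperature for roughly 30 minutes. Each signal is expressed as a percentage of the mean DMSO control, and curves are fitted by four-parameter logistic regression.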

[2] = biological target: KRAS WT (Homo sapiens (Human), UniProt P01116+P62937); experiment: Ras-Raf disruption/FRET/MOA assay (BRAF RBD, Cyclophilin A); type: biochemical; details: read-out: KRAS WT FRET data IC50
KRAS WT, sequence (P01116 other isoform, or with tags, fused parts or gaps): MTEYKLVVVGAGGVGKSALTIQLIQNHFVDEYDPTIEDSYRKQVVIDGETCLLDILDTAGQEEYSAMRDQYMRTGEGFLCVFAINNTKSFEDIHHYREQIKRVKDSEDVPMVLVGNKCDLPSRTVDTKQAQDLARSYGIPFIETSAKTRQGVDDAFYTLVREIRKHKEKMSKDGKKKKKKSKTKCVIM
KRAS WT, sequence (P62937 whole entry): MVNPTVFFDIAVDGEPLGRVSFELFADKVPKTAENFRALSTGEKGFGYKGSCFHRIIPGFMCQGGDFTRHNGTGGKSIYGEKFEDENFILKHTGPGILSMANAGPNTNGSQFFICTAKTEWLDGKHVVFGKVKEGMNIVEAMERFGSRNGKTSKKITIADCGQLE
How it was run: (§2)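 His6-K-Ras-GMPPNP (12.5 nM), GST-BRAF RBD (50 nM) and tagless Cyclophilin A (25 μM) were combined in 25 mM HEPES pH 7.3 with 100 mM NaCl, 5 mM MgCl2, 0.1% BSA and 0.002% Tween20, with compound as a 10-point 3-fold series from 30 μM final, then incubated 3 h at 25° C.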

[3] = biological target: KRAS G13D (Homo sapiens (Human), UniProt P01116+P62937, G13D); experiment: as above; type: biochemical; details: read-out: KRAS G13D FRET data IC50
KRAS G13D, sequence (P01116 other isoform, or with tags, fused parts or gaps G13D): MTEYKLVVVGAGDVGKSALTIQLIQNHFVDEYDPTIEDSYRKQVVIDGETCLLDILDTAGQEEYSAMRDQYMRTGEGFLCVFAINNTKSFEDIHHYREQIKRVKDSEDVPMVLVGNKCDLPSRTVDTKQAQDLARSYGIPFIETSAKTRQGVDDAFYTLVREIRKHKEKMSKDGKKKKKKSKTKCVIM
KRAS G13D, sequence (P62937 whole entry): as the sequence (P62937 whole entry) above
How it was run: as §2

[4] = biological target: NRAS G12C (Homo sapiens (Human), UniProt P01111+P62937, G12C); experiment: as above; type: biochemical; details: read-out: NRAS G12C FRET data IC50
NRAS G12C, sequence (P01111 whole entry G12C): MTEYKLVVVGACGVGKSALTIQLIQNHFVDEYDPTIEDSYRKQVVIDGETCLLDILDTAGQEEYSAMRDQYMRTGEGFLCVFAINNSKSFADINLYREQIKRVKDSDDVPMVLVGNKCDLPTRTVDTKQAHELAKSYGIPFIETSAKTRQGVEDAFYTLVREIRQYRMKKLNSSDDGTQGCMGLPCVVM
NRAS G12C, sequence (P62937 whole entry): as the sequence (P62937 whole entry) above
How it was run: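 Ras-GMPPNP (12.5 nM), BRAF RBD (50 nM) and 25 μM Cyclophilin A were incubated with compound for 3 h at 25° C, then detected 1.5 h with anti-His Eu and anti-GST APC; IC50 values follow from the reduced TR-FRET ratio.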

[5] = biological target: KRAS G12C (Homo sapiens (Human), UniProt P01116+P62937, G12C); experiment: as above; type: biochemical; details: read-out: KRAS G12C FRET IC50
KRAS G12C, sequence (P01116-2 other isoform, or with tags, fused parts or gaps G12C): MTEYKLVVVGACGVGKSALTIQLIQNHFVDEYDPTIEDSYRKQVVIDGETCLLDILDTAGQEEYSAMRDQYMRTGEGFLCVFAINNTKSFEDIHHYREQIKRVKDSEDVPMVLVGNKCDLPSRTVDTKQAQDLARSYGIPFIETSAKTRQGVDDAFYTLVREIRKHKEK
KRAS G12C, sequence (P62937 whole entry): as the sequence (P62937 whole entry) above
How it was run: as §2

[6] = biological target: KRAS G12D (Homo sapiens (Human), UniProt P01116+P62937, G12D); experiment: as above; type: biochemical; details: read-out: KRAS G12D FRET IC50
KRAS G12D, sequence (P01116 other isoform, or with tags, fused parts or gaps G12D): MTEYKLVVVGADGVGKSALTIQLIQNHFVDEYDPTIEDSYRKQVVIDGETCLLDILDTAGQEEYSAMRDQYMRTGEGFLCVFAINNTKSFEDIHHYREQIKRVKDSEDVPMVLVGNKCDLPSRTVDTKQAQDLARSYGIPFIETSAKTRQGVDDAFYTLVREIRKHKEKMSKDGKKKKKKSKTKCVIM
KRAS G12D, sequence (P62937 whole entry): as the sequence (P62937 whole entry) above
How it was run: as §2

[7] = biological target: KRAS G13C (Homo sapiens (Human), UniProt P01116+P62937, G13C); experiment: as above; type: biochemical; details: read-out: KRAS G13C FRET IC50
KRAS G13C, sequence (P01116 other isoform, or with tags, fused parts or gaps G13C): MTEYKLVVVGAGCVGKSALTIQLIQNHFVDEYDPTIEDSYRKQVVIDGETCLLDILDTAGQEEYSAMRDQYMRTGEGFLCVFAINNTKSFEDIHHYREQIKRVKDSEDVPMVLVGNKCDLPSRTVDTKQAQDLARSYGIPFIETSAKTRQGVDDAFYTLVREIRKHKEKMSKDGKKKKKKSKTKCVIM
KRAS G13C, sequence (P62937 whole entry): as the sequence (P62937 whole entry) above
How it was run: as §2

[8] = biological target: KRAS G12S (Homo sapiens (Human), UniProt P01116+P62937, G12S); experiment: as above; type: biochemical; details: read-out: KRAS G12S FRET IC50
KRAS G12S, sequence (P01116 other isoform, or with tags, fused parts or gaps G12S): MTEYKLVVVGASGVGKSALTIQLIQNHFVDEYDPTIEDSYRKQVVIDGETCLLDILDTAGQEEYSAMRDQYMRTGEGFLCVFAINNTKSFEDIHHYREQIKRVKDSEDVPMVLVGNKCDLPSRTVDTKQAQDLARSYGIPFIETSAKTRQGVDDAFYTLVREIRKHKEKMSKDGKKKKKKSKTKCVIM
KRAS G12S, sequence (P62937 whole entry): as the sequence (P62937 whole entry) above
How it was run: as §2

[9] = biological target: KRAS G12V (Homo sapiens (Human), UniProt P01116+P62937, G12V); experiment: as above; type: biochemical; details: read-out: KRAS G12V FRET IC50
KRAS G12V, sequence (P01116 other isoform, or with tags, fused parts or gaps G12V): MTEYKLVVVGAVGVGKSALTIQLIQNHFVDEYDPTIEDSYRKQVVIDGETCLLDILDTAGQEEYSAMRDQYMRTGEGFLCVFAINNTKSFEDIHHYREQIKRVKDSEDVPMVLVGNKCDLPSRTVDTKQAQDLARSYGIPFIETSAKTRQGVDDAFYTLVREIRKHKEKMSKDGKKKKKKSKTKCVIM
KRAS G12V, sequence (P62937 whole entry): as the sequence (P62937 whole entry) above
How it was run: as §2

[10] = system: Capan-1 cells (K-Ras G12V); experiment: CellTiter-Glo cell viability, Capan-1; type: cell-based, human; details: Homo sapiens, CAPAN-1, 120 h, read-out: Capan-1 Cell Viability IC50
How it was run: as §1

[11] = system: K-Ras G12C (NCI-H358 cells); experiment: Potency assay: pERK in NCI-H358 cells; type: cell-based, human; details: Homo sapiens, read-out: pERK EC50 (H358 KRAS G12C)
How it was run: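 Cells plated the day before were exposed for 4 h at 37° C, 5% CO2 to a 10-point, 3-fold DMSO dilution series (10 mM top stock), in duplicate. Phospho-ERK was read by AlphaLISA SureFire Ultra or by In-Cell Western with DRAQ5 DNA stain, and IC50 came from a 4-parameter sigmoidal fit.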

| SMILES | IC50 [1] [nM] | IC50 [2] [nM] | IC50 [3] [nM] | IC50 [4] [nM] | IC50 [5] [nM] | IC50 [6] [nM] | IC50 [7] [nM] | IC50 [8] [nM] | IC50 [9] [nM] | IC50 [10] [nM] | EC50 ([11]; NCI-H358, 4 h) [nM] | IC50 ([1]; K-Ras G12C, 5-day treatment) [nM] | IC50 ([10]; K-Ras G12V, 5-day treatment) [nM] | EC50 ([11]; NCI-H358 cells, 4 hours) [nM] |
| --- | --- | --- | --- | --- | --- | --- | --- | --- | --- | --- | --- | --- | --- | --- |
| CCn1c(-c2cccnc2[C@H](C)OC)c2c3cc(ccc31)-c1csc(n1)C[C@H](NC(=O)[C@H](C(C)C)N(C)C(=O)N1CC3CC(C1)O3)C(=O)N1CCC[C@H](N1)C(=O)OCC(C)(C)C2 [Compound A301] | 10 to 100 | 100 to 1000 | 1000 to 10000 | 100 to 1000 | 100 to 1000 | 1000 to 10000 | 1000 to 10000 | 100 to 1000 | 100 to 1000 | 100 to 1000 | < 5000 | – | – | – |
| CCn1c(-c2cccnc2[C@H](C)OC)c2c3cc(ccc31)-c1csc(n1)C[C@H](NC(=O)[C@H](C(C)C)N(C)S(=O)(=O)N1CC(OC)C1)C(=O)N1CCC[C@H](N1)C(=O)OCC(C)(C)C2 [Compound A322] | – | 100 to 1000 | 1000 to 10000 | 100 to 1000 | 100 to 1000 | 1000 to 10000 | 100 to 1000 | 1000 to 10000 | 100 to 1000 | – | – | 100 to 1000 | 100 to 1000 | < 5000 |
| CCn1c(-c2cccnc2[C@H](C)OC)c2c3cc(ccc31)-c1csc(n1)C[C@H](NC(=O)[C@H](C(C)C)N(C)C(=O)N1CC(OC(F)(F)F)C1)C(=O)N1CCC[C@H](N1)C(=O)OCC(C)(C)C2 [Compound A330] | – | 100 to 1000 | 100 to 1000 | 10 to 100 | 10 to 100 | 1000 to 10000 | 100 to 1000 | 100 to 1000 | 100 to 1000 | – | – | 10 to 100 | 10 to 100 | < 5000 |
| CCN(C)C(=O)N(C)[C@H](C(=O)N[C@H]1Cc2nc(cs2)-c2ccc3c(c2)c(c(-c2cccnc2[C@H](C)OC)n3CC)CC(C)(C)COC(=O)[C@@H]2CCCN(N2)C1=O)C(C)C [Compound A336] | – | 10 to 100 | 100 to 1000 | 10 to 100 | 10 to 100 | 100 to 1000 | 100 to 1000 | 100 to 1000 | 100 to 1000 | – | – | 10 to 100 | 10 to 100 | < 5000 |
| CCn1c(-c2cccnc2[C@H](C)OC)c2c3cc(ccc31)-c1cc(O)cc(c1)C[C@H](NC(=O)[C@H](C(C)C)N(C)C(=O)[C@@H]1CCN(C(=O)[C@]3(C)CCCN3C)C1)C(=O)N1CCC[C@H](N1)C(=O)OCC(C)(C)C2 [Compound A342] | – | 10 to 100 | 10 to 100 | 10 to 100 | 10 to 100 | 10 to 100 | 10 to 100 | 10 to 100 | 10 to 100 | – | – | 10 to 100 | 100 to 1000 | < 5000 |
| CCn1c(-c2cccnc2[C@H](C)OC)c2c3cc(ccc31)-c1csc(n1)C[C@H](NC(=O)[C@H](C(C)C)N(C)C(=O)N1CC(N)C1)C(=O)N1CCC[C@H](N1)C(=O)OCC(C)(C)C2 [Compound A343] | – | 100 to 1000 | 100 to 1000 | 10 to 100 | 10 to 100 | 100 to 1000 | 100 to 1000 | 100 to 1000 | 100 to 1000 | – | – | 100 to 1000 | 100 to 1000 | < 5000 |
| CCn1c(-c2cccnc2[C@H](C)OC)c2c3cc(ccc31)-c1cc(O)cc(c1)C[C@H](NC(=O)[C@H](C(C)C)N(C)C(=O)[C@H]1CCN(C(=O)OC3CN(C)C3)C1)C(=O)N1CCC[C@H](N1)C(=O)OCC(C)(C)C2 [Compound A348] | – | 10 to 100 | 10 to 100 | 10 to 100 | 10 to 100 | 10 to 100 | 10 to 100 | 10 to 100 | 10 to 100 | – | – | 10 to 100 | 100 to 1000 | < 5000 |
| CCn1c(-c2cccnc2[C@H](C)OC)c2c3cc(ccc31)-c1cc(O)cc(c1)C[C@H](NC(=O)[C@H](C(C)C)N(C)C(=O)[C@H]1CCN(C(=O)[C@@]3(C)CCCN3C)C1)C(=O)N1CCC[C@H](N1)C(=O)OCC(C)(C)C2 [Compound A379] | – | 10 to 100 | 10 to 100 | 10 to 100 | 10 to 100 | 10 to 100 | 10 to 100 | 10 to 100 | 10 to 100 | – | – | 10 to 100 | 100 to 1000 | < 5000 |
| CCn1c(-c2cccnc2[C@H](C)OC)c2c3cc(ccc31)-c1cc(O)cc(c1)C[C@H](NC(=O)[C@H](C(C)C)N(C)C(=O)C13CCC(CC1)O3)C(=O)N1CCC[C@H](N1)C(=O)OCC(C)(C)C2 [Compound A412] | – | 10 to 100 | 100 to 1000 | 100 to 1000 | 10 to 100 | 100 to 1000 | 100 to 1000 | 100 to 1000 | 100 to 1000 | – | – | 100 to 1000 | 100 to 1000 | < 5000 |
| CCn1c(-c2cccnc2[C@H](C)OC)c2c3cc(ccc31)-c1cc(O)cc(c1)C[C@H](NC(=O)[C@H](C(C)C)N(C)C(=O)C1CC3(CCOCC3)CO1)C(=O)N1CCC[C@H](N1)C(=O)OCC(C)(C)C2 (stereo partly shown) [Compound A413] | – | 10 to 100 | 100 to 1000 | 10 to 100 | 10 to 100 | 100 to 1000 | 10 to 100 | 100 to 1000 | 100 to 1000 | – | – | 100 to 1000 | 100 to 1000 | < 5000 |
| CCn1c(-c2cccnc2[C@H](C)OC)c2c3cc(ccc31)-c1cc(O)cc(c1)C[C@H](NC(=O)[C@H](C(C)C)N(C)C(=O)[C@H]1CC[C@@H](C(N)=O)O1)C(=O)N1CCC[C@H](N1)C(=O)OCC(C)(C)C2 [Compound A414] | – | 100 to 1000 | 100 to 1000 | 10 to 100 | 10 to 100 | 100 to 1000 | 10 to 100 | 10 to 100 | 100 to 1000 | – | – | 100 to 1000 | 1000 to 10000 | < 5000 |
